Legend:
Format in all cases: biochemical, Tripterygium wilfordii
Conditions in all cases: NADPH with regenerating system, TwPOR3, Tris-HCl pH 7.5, 30 °C, 30 min; 14-hydroxylation
CYP82D263 = test system: T1, CYP82D263; experiment: yeast microsomes, product […] by LC-TQ-MS/MS, Michaelis-Menten fit
T1 construct: full-length CYP cloned from root cDNA, coexpressed with TwPOR3 (pESC-LEU) in Saccharomyces cerevisiae BY4741; yeast microsomes; with NADPH--cytochrome P450 reductase

CYP82D274 [1] = test system: T2, CYP82D274; experiment: as above
T2 construct: full-length CYP cloned from root cDNA, coexpressed with TwPOR3 (pESC-LEU) in Saccharomyces cerevisiae BY4741; yeast microsomes; with NADPH--cytochrome P450 reductase

CYP82D274 [2] = test system: T2, CYP82D274; experiment: yeast microsomes, product […] by GC-MS, Michaelis-Menten fit

`CC(C)c1ccc2c(c1)CC[C@H]1[C@](C)(C(=O)O)CCC[C@]21C` [compound 7, dehydroabietic acid] was tested. Which Km (CYP82D263) did it give?
Its Km is 8.42 ± 1.89 µM.

What about the Km (CYP82D274 [1]) of the same molecule?
Its Km is 0.99 ± 0.17 µM.

For `CC(C)C1=CCC2=C(CC[C@H]3C(C)(C)CCC[C@]23C)C1` [compound 5, miltiradiene], which Km (CYP82D274 [2]) is on record?
The Km was 47.3 ± 13 µM.

— paper PMC9936527, “Tandemly duplicated CYP82Ds catalyze 14-hydroxylation in triptolide biosynthesis and precursor production in Saccharomyces cerevisiae” (Nature Communications, 2023)
